Assay results: patent US9821062B2, “Cyanine dye compound and preparation method therefor, and dual-function agent for photodynamic therapy and preparation method therefor” (ZHEJIANG HISUN PHARMACEUTICAL CO., LTD., priority 2012, dated 2017)

Assay: Ultraviolet spectroscopy detection: long-wavelength absorption peak, fluorescence, Stokes shift
Format: physicochemical
Description: Electronic absorption spectra for the compounds are shown in FIG. 1, from which it can be seen that, all the compounds having a structure shown in formula VIII, formula IX, formula III, formula IV, formula V, and formula XVII provided according to the present invention show a strong long-wavelength absorption peak between 750 nm and 860 nm, and have an obvious Stokes shift between 37 nm and 41 nm.

- Fluorescence: 876 nm
- Stokes shift: 39 nm
- Absorption peak (long-wavelength absorption peak): 837 nm
SMILES: CC1(C)C(/C=C/C2=C(Sc3ccc(C(=O)O)cc3)C(=C/C=C3/N(CCCCS(=O)(=O)O)c4ccc5ccccc5c4C3(C)C)/CCC2)=[N+](CCCCS(=O)(=O)O)c2ccc3ccccc3c21 [Formula IX]
